Laboratory results taken from ChEMBL document CHEMBL5725427, “7-hydroxy-indolinyl antagonists of P2Y1 receptor” (2017).

Target: P2Y purinoceptor 1 (Homo sapiens, UniProt P47900)
Experiment: Scintillation Proximity Assay (SPA): A SPA membrane binding assay was used to identify inhibitors of [33P] […] Binding reactions were performed in 384-well OptiPlates (PerkinElmer Life Sciences, Cat #6007299) in a volume of 50 μL containing 15 fmol of P2Y1 receptor (1.7 μg of total protein), 0.3 nM [33P] […] Reactions were allowed to proceed to completion at room temperature for 1 hour followed by centrifugation of the plate for 5 min. About 40 μL of the aqueous solution was aspirated. Plates were sealed and the [33P]

Sequence of P2Y purinoceptor 1 (P47900 whole entry): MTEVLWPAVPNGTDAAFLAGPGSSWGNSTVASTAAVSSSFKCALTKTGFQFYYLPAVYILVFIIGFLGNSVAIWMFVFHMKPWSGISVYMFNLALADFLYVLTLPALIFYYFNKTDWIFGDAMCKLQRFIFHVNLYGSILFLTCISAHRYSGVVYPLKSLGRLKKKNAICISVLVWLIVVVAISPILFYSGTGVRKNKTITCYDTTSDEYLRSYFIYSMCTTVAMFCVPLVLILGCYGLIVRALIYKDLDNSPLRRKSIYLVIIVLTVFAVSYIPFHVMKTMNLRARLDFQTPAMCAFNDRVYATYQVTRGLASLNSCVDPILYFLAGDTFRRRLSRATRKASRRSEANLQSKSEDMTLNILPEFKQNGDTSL

SMILES	Ki
CC1(C)CN(c2ccccc2NC(=O)Nc2ccc(OC(F)(F)F)cc2)c2c(O)c(F)cc(-c3nc4cc(Cl)ccc4s3)c21	52 nM
CC1(C)CN(c2ccccc2NC(=O)Nc2nc3ccc(Cl)nc3s2)c2c(O)cc(F)c(-c3nc4ccc(F)cc4s3)c21	16 nM
CC1(C)CN(c2ccccc2NC(=O)Nc2nc3ccc(Cl)cc3s2)c2c(O)cc(F)c(-c3nc4cc(Cl)ccc4s3)c21	98 nM
CC1(C)CN(c2ccccc2NC(=O)Nc2nc3ccc(F)cc3s2)c2c(O)cc(F)c(-c3nc4cc(Cl)ccc4s3)c21	48 nM
CC1(C)CN(c2ccccc2NC(=O)Nc2nc3ccc(Cl)nc3s2)c2c(O)cc(F)c(-c3nc4cc(Cl)ccc4s3)c21	39 nM
CC1(C)CN(c2ccccc2NC(=O)Nc2nc3ccc(Cl)cc3s2)c2c(O)ccc(-c3nc4cc(F)ccc4s3)c21	17 nM
CC1(C)CN(c2ccccc2NC(=O)Nc2nc3ccc(F)cc3s2)c2c(O)ccc(-c3nc4ccc(Cl)cc4s3)c21	78 nM
CC1(C)CN(c2ccccc2NC(=O)Nc2nc3ccc(Cl)cc3s2)c2c(O)cc(F)c(-c3nc4ccc(F)cc4s3)c21	90 nM

The next compounds have a lower Ki than those just listed; values first:

Ki	SMILES
13 nM	CC1(C)CN(c2ccccc2NC(=O)Nc2ccc(OC(F)(F)F)cc2)c2c(O)ccc(-c3nc4ccc(Cl)cc4s3)c21
13 nM	CC1(C)CN(c2ccccc2NC(=O)Nc2csc(Cl)n2)c2c(O)cc(F)c(-c3nc4cc(Cl)ccc4s3)c21
13 nM	CC1(C)CN(c2ccccc2NC(=O)Nc2ccc(OC(F)(F)F)cc2)c2c(O)ccc(-c3ccc(F)nc3)c21
9.9 nM	COc1cncc(-c2ccc(O)c3c2C(C)(C)CN3c2ccccc2NC(=O)Nc2ccc(OC(F)(F)F)cc2)c1
9.5 nM	CC1(C)CN(c2ccccc2NC(=O)Nc2ccc(OC(F)(F)F)cc2)c2c(O)cc(F)c(-c3ccc(Cl)s3)c21
8.2 nM	CC1(C)CN(c2ccccc2NC(=O)Nc2nc3ccc(Cl)nc3s2)c2c(O)cc(F)c(-c3ccc(Cl)s3)c21
